According to PMC9246869, “Allosteric inhibition of PPM1D serine/threonine phosphatase via an altered conformational state” (Nature Communications, 2022):
Values joined by “and” are separate entries in the source; they are usually repeats but may differ in a detail not shown here. Equal entries are not always repeated.

Columns and labels:
PPM1D1–420 [1] = target: T1, PPM1D1–420 (Homo sapiens, UniProt O15297); test: Differential scanning fluorimetry (DSF); format: binding; parameters: key to DSF Trial 1 (Tm) / DSF Trial 2 (Tm) / DSF Trial 3 (Tm) / DSF average (Tm) / DSF melting temperature with GSK2830371 / DSF melting temperature with GSK2830371, Average: melting temperature Tm in °C
T1 construct: PPM1D1–420 was PCR-amplified from the synthesized gene with BsaI sites; His(6)-SUMO (N, cleaved yes); made in house; host or cells: E. coli BL21 (DE3)
T1 sequence (O15297 1-420): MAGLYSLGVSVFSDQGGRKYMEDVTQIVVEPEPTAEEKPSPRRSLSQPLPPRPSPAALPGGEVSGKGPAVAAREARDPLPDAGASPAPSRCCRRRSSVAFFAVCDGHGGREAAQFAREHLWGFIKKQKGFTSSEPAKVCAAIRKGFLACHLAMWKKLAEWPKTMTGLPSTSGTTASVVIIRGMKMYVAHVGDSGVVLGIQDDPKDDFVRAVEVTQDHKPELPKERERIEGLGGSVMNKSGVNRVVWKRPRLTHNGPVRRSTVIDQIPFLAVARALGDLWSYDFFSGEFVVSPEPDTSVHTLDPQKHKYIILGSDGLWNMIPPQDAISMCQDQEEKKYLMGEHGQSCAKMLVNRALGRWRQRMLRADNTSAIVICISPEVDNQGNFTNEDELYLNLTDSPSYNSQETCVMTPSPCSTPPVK
Procedure: The purified protein constructs were mixed in the assay buffer containing 25 mM HEPES pH 7.5, 10 mM MgCl2, 150 mM NaCl. The sample preparation for the DSF assay included incubating the protein constructs (final concentration 0.2–0.4 mg/mL) with either DMSO alone (control) or with 40 µM GSK2830371 for 30 min before the addition of the Sypro orange dye (final concentration 10×). The final reaction volume of 10 µL was pipetted into a 384 multi-well clear plate (Light Cycler 480), sealed using a foil and spun down at 1000 × g for 2 min. The fluorescence emission intensity of the Sypro Orange dye was monitored in a LightCycler-480 instrument by running the Protein Melt program. The program was run in a continuous acquisition mode from 25 °C to 95 °C with a ramp rate of 0.06 °C/s (with 10 acquisitions/°C). The data (first derivative of the fluorescence signal as a function of temperature) was analyzed using the LightCycler-480 software for measuring the Tm values with and without the compound. A separate control with buffer alone and buffer with compound was run in the same plate to subtract out the potential interactions of the buffer components and/or the compound with the dye.

Solubility = format: physicochemical; details: precluded ITC
PPM1DΔflap = target: T2, PPM1DΔflap (Homo sapiens, UniProt O15297, DEL219-231/DEL235-284/E287S/S285N); test: Differential scanning calorimetry (DSC); format: binding; details: Supplementary Fig. 5B
T2 construct: PPM1D1–218-GGSNGS-288–420 (PPM1D∆flap); His(6)-SUMO (N, cleaved yes); made in house; host or cells: E. coli BL21 (DE3)
T2 sequence (O15297 with tags, fused parts or gaps DEL219-231/DEL235-284/S285N/E287S): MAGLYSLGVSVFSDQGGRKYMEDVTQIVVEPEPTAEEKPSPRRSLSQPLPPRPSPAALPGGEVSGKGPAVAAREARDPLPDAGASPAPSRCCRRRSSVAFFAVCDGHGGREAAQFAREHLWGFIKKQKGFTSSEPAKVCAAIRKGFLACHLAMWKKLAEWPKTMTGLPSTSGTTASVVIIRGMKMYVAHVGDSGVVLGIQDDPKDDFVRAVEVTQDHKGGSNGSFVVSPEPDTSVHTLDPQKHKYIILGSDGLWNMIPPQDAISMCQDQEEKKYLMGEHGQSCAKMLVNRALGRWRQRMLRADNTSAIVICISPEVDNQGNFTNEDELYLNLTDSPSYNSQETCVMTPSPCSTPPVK
Procedure: (§1) DSC thermograms were recorded in MicroCal DSC from Malvern with an autosampler. For DSC experiments the purified protein constructs were extensively dialyzed against 25 mM HEPES pH 7.5, 10 mM MgCl2, 150 mM NaCl and 1 mM TCEP. The experiments were performed using 0.4 mg/mL concentration of wild-type or mutant protein (8.5–8.9 µM), with and without GSK2830371 compound at 40 µM and 2% DMSO (v/v). The respective reference scans were run under identical DSC set up conditions and subtracted from each sample scan. The program was run in a continuous acquisition mode from 25 °C to 90 °C at a rate of 120 °C/h The heat capacity curves and midpoint temperature (Tm) were analyzed using Origin 7.0 software.

PPM1D1–420 [2] = target: T1, PPM1D1–420; test: Differential scanning calorimetry (DSC); format: binding
Procedure: as §1

[3] = Sup Fig 2D, protein with GSK, average of trials
[4] = source data Fig 3C, with GSK, in °C (unit assumed)

Cc1ncc(Cl)cc1NCc1ccc(C(=O)N[C@@H](CC2CCCC2)C(=O)NC2CC2)s1 [GSK2830371]
DSF melting temperature with GSK2830371, Average (PPM1D1–420 [1]; PPM1D 1-420, average of 4 trials, in °C (unit assumed)): 59.7917 | DSF melting temperature with GSK2830371 (PPM1D1–420 [1]; PPM1D 1-420, individual trials, in °C (unit assumed)): 59.846 and 59.6596 and 59.8596 and 59.8015 | ΔTm at 40 µM (PPM1D1–420 [1]; PPM1D1–420, 40 µM compound, read-out: thermal shift by DSF): ~8 °C | DSF Trial 1 (melting temperature) (PPM1D1–420 [1]; Sup Fig 2D, protein with GSK vs WT (DMSO), trial 1): 59.84 ˚C | DSF Trial 2 (melting temperature) (PPM1D1–420 [1]; Sup Fig 2D, protein with GSK vs WT (DMSO), trial 2): 59.65 ˚C | DSF Trial 3 (melting temperature) (PPM1D1–420 [1]; Sup Fig 2D, protein with GSK vs WT (DMSO), trial 3): 59.85 ˚C | DSF Average (melting temperature) (PPM1D1–420 [1]; [3]): 59.78 ˚C | DSF average (Tm) (PPM1D1–420 [1]; source data Fig 3C, with GSK, column head empty, in °C (unit assumed)): 59.78 | DSF Trial 1 (Tm) (PPM1D1–420 [1]; [4]): 59.84 | DSF Trial 2 (Tm) (PPM1D1–420 [1]; [4]): 59.65 | DSF Trial 3 (Tm) (PPM1D1–420 [1]; [4]): 59.85 | solubility (in words) (Solubility): relatively low solubility | thermal shift by DSC (PPM1DΔflap): +8.5 °C | ΔTm at 40 µM (PPM1D1–420 [2]; PPM1D1–420, 40 µM compound, read-out: thermal shift by DSC): 8 °C | DSC Trial 1 (melting temperature) (PPM1D1–420 [2]; Sup Fig 2D, protein with GSK vs WT alone, trial 1): 62.26 ˚C | DSC Trial 2 (melting temperature) (PPM1D1–420 [2]; Sup Fig 2D, protein with GSK vs WT alone, trial 2): 62.33 ˚C | DSC Trial 3 (melting temperature) (PPM1D1–420 [2]; Sup Fig 2D, protein with GSK vs WT alone, trial 3): 62.14 ˚C | DSC Average (melting temperature) (PPM1D1–420 [2]; [3]): 62.2433 ˚C | DSC Average (Tm) (PPM1D1–420 [2]; [4]): 62.2433 | DSC Trial 1 (Tm) (PPM1D1–420 [2]; [4]): 62.26 | DSC Trial 2 (Tm) (PPM1D1–420 [2]; [4]): 62.33 | DSC Trial 3 (Tm) (PPM1D1–420 [2]; [4]): 62.14
